Source: PubChem BioAssay (NCI)
“And” between values parts separate entries of the source, which are not always exact repeats. Identical values can stand only once.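 Exposure lasted 48 hours, with cells grown in 96-well plates and compounds tested at five concentrations. GI50: concentration for 50% inhibition of growth. The concentration for full growth arrest is given as TGI.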

Tests used:
Experiment in all cases: NCI anticancer screen, dose series, 48 h
[1] = test system: 786-0 renal
[2] = test system: A498 renal
[3] = test system: A549 NSCLC
[4] = test system: ACHN renal
[5] = test system: BT-549 breast
[6] = test system: CAKI-1 renal
[7] = test system: CCRF-CEM leukemia
[8] = test system: COLO 205 colon
[9] = test system: DU-145 prostate
[10] = test system: EKVX NSCLC
[11] = test system: HCC-2998 colon
[12] = test system: HCT-116 colon
[13] = test system: HCT-15 colon
[14] = test system: HL-60(TB) leukemia
[15] = test system: HOP-62 NSCLC
[16] = test system: HOP-92 NSCLC
[17] = test system: HS 578T breast
[18] = test system: HT29 colon
[19] = test system: IGROV1 ovarian
[20] = test system: K-562 leukemia
[21] = test system: KM12 colon
[22] = test system: LOX IMVI melanoma
[23] = test system: M14 melanoma
[24] = test system: MALME-3M melanoma
[25] = test system: MCF7 breast
[26] = test system: MDA-MB-231 breast
[27] = test system: MDA-MB-435
[28] = test system: MOLT-4 leukemia
[29] = test system: NCI-H226 lung
[30] = test system: NCI-H23 lung
[31] = test system: NCI-H460 lung
[32] = test system: NCI-H522 lung
[33] = test system: NCI/ADR-RES ovarian
[34] = test system: OVCAR-3 ovarian
[35] = test system: OVCAR-4 ovarian
[36] = test system: OVCAR-5 ovarian
[37] = test system: OVCAR-8 ovarian
[38] = test system: PC-3 prostate
[39] = test system: RPMI-8226 leukemia
[40] = test system: SF-268 CNS
[41] = test system: SF-295 CNS
[42] = test system: SF-539 CNS
[43] = test system: SK-MEL-2 melanoma
[44] = test system: SK-MEL-28 melanoma
[45] = test system: SK-MEL-5 melanoma
[46] = test system: SK-OV-3 ovarian
[47] = test system: SN12C renal
[48] = test system: SNB-19 CNS
[49] = test system: SNB-75 CNS
[50] = test system: SR leukemia
[51] = test system: SW-620 colon
[52] = test system: T-47D breast
[53] = test system: TK-10 renal
[54] = test system: U251 CNS
[55] = test system: UACC-257 melanoma
[56] = test system: UACC-62 melanoma
[57] = test system: UO-31 renal
[58] = test system: RXF 393 renal

With N=C(N)c1ccc(NCCOCCNc2ccc(C(=N)N)cc2)cc1 the GI50 [1] was > 100 µM, the TGI [1] was > 100 µM and the GI50 [2] was 17 µM. The TGI [2] was 94.6 µM, the GI50 [3] was 14.4 µM and the TGI [3] was > 100 µM. The GI50 [4] was 36.1 µM, the TGI [4] was > 100 µM and the GI50 [5] was 34.9 µM. The TGI [5] was > 100 µM, the GI50 [6] was > 100 µM and the TGI [6] was > 100 µM. For the same compound, the GI50 [7] was > 100 µM, the TGI [7] was > 100 µM and the GI50 [8] was 14.9 µM. The TGI [8] was 39.5 µM, the GI50 [9] was 27.4 µM and the TGI [9] was > 100 µM. The GI50 [10] was 21.7 µM, the TGI [10] was > 100 µM and the GI50 [11] was 41.9 µM. For the same compound, the TGI [11] was > 100 µM, the GI50 [12] was 49.4 µM and the TGI [12] was > 100 µM. The GI50 [13] was 30.2 µM, the TGI [13] was > 100 µM and the GI50 [14] was 60.9 µM. The TGI [14] was > 100 µM, the GI50 [15] was 33.2 µM and the TGI [15] was > 100 µM. The GI50 [16] was 15.4 µM, the TGI [16] was 59.8 µM and the GI50 [17] was 52.8 µM. For the same compound, the TGI [17] was > 100 µM, the GI50 [18] was 29.5 µM and the TGI [18] was > 100 µM. The GI50 [19] was 60.5 µM, the TGI [19] was > 100 µM and the GI50 [20] was 21.3 µM. The TGI [20] was > 100 µM, the GI50 [21] was 43.8 µM and the TGI [21] was > 100 µM. The GI50 [22] was > 100 µM, the TGI [22] was > 100 µM and the GI50 [23] was 55.4 µM. The TGI [23] was > 100 µM, the GI50 [24] was 29.7 µM and the TGI [24] was 87 µM. For the same compound, the GI50 [25] was 16 µM, the TGI [25] was > 100 µM and the GI50 [26] was > 100 µM. The TGI [26] was > 100 µM, the GI50 [27] was 81.3 µM and the TGI [27] was > 100 µM. For the same compound, the GI50 [28] was > 100 µM, the TGI [28] was > 100 µM and the GI50 [29] was 13.3 µM. The TGI [29] was > 100 µM, the GI50 [30] was 6.91 µM and the TGI [30] was > 100 µM. The GI50 [31] was 2.94 µM, the TGI [31] was > 100 µM and the GI50 [32] was 29.8 µM. For the same compound, the TGI [32] was > 100 µM, the GI50 [33] was 78.5 µM and the TGI [33] was > 100 µM. For the same compound, the GI50 [34] was 69.1 µM, the TGI [34] was > 100 µM and the GI50 [35] was 34.1 µM. For the same compound, the TGI [35] was > 100 µM, the GI50 [36] was > 100 µM and the TGI [36] was > 100 µM. The GI50 [37] was 34.4 µM, the TGI [37] was > 100 µM and the GI50 [38] was 50.7 µM. The TGI [38] was > 100 µM, the GI50 [39] was 22 µM and the TGI [39] was > 100 µM. For the same compound, the GI50 [40] was 45.3 µM, the TGI [40] was > 100 µM and the GI50 [41] was 43.3 µM. For the same compound, the TGI [41] was > 100 µM, the GI50 [42] was 36.8 µM and the TGI [42] was > 100 µM. The GI50 [43] was 51.6 µM, the TGI [43] was > 100 µM and the GI50 [44] was 73.3 µM. For the same compound, the TGI [44] was > 100 µM, the GI50 [45] was 25.5 µM and the TGI [45] was 89.4 µM. It also gave a GI50 [46] of 7.86 µM, a TGI [46] of 51.7 µM and a GI50 [47] of 4.28 µM. For the same compound, the TGI [47] was > 100 µM, the GI50 [48] was 27.3 µM and the TGI [48] was > 100 µM. For the same compound, the GI50 [49] was 19.2 µM, the TGI [49] was 81.3 µM and the GI50 [50] was 49 µM. For the same compound, the TGI [50] was > 100 µM, the GI50 [51] was 63.6 µM and the TGI [51] was > 100 µM. The GI50 [52] was 7.17 µM, the TGI [52] was 75.6 µM and the GI50 [53] was > 100 µM. For the same compound, the TGI [53] was > 100 µM, the GI50 [54] was 35.9 µM and the TGI [54] was > 100 µM. For the same compound, the GI50 [55] was > 100 µM, the TGI [55] was > 100 µM and the GI50 [56] was 29.2 µM. For the same compound, the TGI [56] was > 100 µM, the GI50 [57] was 47.2 µM and the TGI [57] was > 100 µM.
For C[n+]1c(-c2ccc(/C=N/NC(=O)c3ccc(C(=O)N/N=C/c4ccc(-c5cn6ccccc6[n+]5C)cc4)cc3)cc2)cn2ccccc21, the GI50 [1] was 126 µM, the TGI [1] was 53.7 µM and 252 µM and the GI50 [2] was 172 µM. The TGI [2] was 70.8 µM and 309 µM, the GI50 [3] was 176 µM and the TGI [3] was 314 µM. The GI50 [4] was 752 µM, the TGI [4] was > 1000 µM and the GI50 [5] was 874 µM. For the same compound, the TGI [5] was > 1000 µM, the GI50 [6] was > 1000 µM and the TGI [6] was > 1000 µM. The GI50 [7] was 209 µM, the TGI [7] was > 50 µM and 353 µM and the GI50 [8] was > 1000 µM. For the same compound, the TGI [8] was > 1000 µM, the GI50 [9] was 206 µM and the TGI [9] was 698 µM. The GI50 [10] was > 1000 µM, the TGI [10] was > 1000 µM and the GI50 [11] was 577 µM. For the same compound, the TGI [11] was > 1000 µM, the GI50 [12] was > 1000 µM and the TGI [12] was > 1000 µM. For the same compound, the GI50 [13] was > 1000 µM, the TGI [13] was > 1000 µM and the GI50 [14] was 2.37 µM. For the same compound, the TGI [14] was 186 µM, the GI50 [15] was 277 µM and the TGI [15] was 425 µM. The GI50 [16] was 198 µM, the TGI [16] was 362 µM and the GI50 [17] was > 1000 µM. The TGI [17] was > 1000 µM, the GI50 [18] was 137 µM and the TGI [18] was 266 µM. For the same compound, the GI50 [19] was > 1000 µM, the TGI [19] was > 1000 µM and the GI50 [20] was 132 µM. For the same compound, the TGI [20] was 259 µM, the GI50 [21] was > 1000 µM and the TGI [21] was > 1000 µM. The GI50 [22] was 846 µM, the TGI [22] was > 1000 µM and the GI50 [23] was 623 µM. For the same compound, the TGI [23] was > 1000 µM, the GI50 [24] was 208 µM and the TGI [24] was > 85.6 µM and 422 µM. The GI50 [25] was 343 µM, the TGI [25] was > 1000 µM and the GI50 [26] was 119 µM. For the same compound, the TGI [26] was 242 µM, the GI50 [27] was > 1000 µM and the TGI [27] was > 1000 µM. The GI50 [28] was 135 µM, the TGI [28] was 292 µM and the GI50 [29] was 124 µM. The TGI [29] was 283 µM, the GI50 [30] was 297 µM and the TGI [30] was 717 µM. For the same compound, the GI50 [31] was > 1000 µM, the TGI [31] was > 1000 µM and the GI50 [32] was 186 µM. For the same compound, the TGI [32] was 326 µM, the GI50 [33] was 553 µM and the TGI [33] was > 1000 µM. For the same compound, the GI50 [34] was > 1000 µM, the TGI [34] was > 1000 µM and the GI50 [35] was 623 µM. The TGI [35] was > 1000 µM, the GI50 [36] was > 1000 µM and the TGI [36] was > 1000 µM. It also gave a GI50 [37] of 184 µM, a TGI [37] of 323 µM and a GI50 [38] of 169 µM. The TGI [38] was 306 µM, the GI50 [39] was 121 µM and the TGI [39] was 306 µM. The GI50 [58] was 174 µM, the TGI [58] was > 87.2 µM and 312 µM and the GI50 [40] was > 1000 µM. The TGI [40] was > 1000 µM, the GI50 [41] was 290 µM and the TGI [41] was 944 µM. It also gave a GI50 [42] of 206 µM, a TGI [42] of 349 µM and a GI50 [43] of 270 µM. It also gave a TGI [43] of 498 µM, a GI50 [44] of 258 µM and a TGI [44] of 406 µM. The GI50 [45] was 155 µM, the TGI [45] was > 94.9 µM and 634 µM and the GI50 [46] was 281 µM. The TGI [46] was 494 µM, the GI50 [47] was 213 µM and the TGI [47] was 493 µM. For the same compound, the GI50 [48] was 248 µM, the TGI [48] was 517 µM and the TGI [50] was 218 µM. For the same compound, the GI50 [51] was > 1000 µM, the TGI [51] was > 1000 µM and the GI50 [52] was 372 µM. The TGI [52] was 928 µM, the GI50 [53] was 228 µM and the TGI [53] was 374 µM. It also gave a GI50 [54] of 197 µM, a TGI [54] of 347 µM and a GI50 [55] of 182 µM. For the same compound, the TGI [55] was 97.5 µM and 322 µM, the GI50 [56] was 177 µM and the TGI [56] was 316 µM. The GI50 [57] was 227 µM and the TGI [57] was > 73.3 µM and 955 µM.
